Experimental findings from US20240392302A1, “METHOD FOR DETECTING AND QUANTIFYING RNA” (FLUORESCENCE DIAGNOSIS (SHANGHAI) BIOTECH COMPANY LTD., priority 2021, published 2024) are described below.

This data set deals with F30-N16-1 RNA aptamer molecules. Description: Binding of F30-N16-1 RNA aptamer molecules with different fluorescent molecules (fluorescence spectrum, activation multiple). The format is biochemical. The settings on record: for Maximum emission peak (nm) / Maximum excitation peak (nm): complex with F30-N16-1; for Activation Multiple: fluorophore with F30-N16-1. The protocol:
Nucleic acid aptamer molecules of N16 or N16 mutants were prepared by using the commonly-used experimental method (I), 2.5 μM of nucleic acid aptamer molecules and 0.5 μM of fluorophore molecules were incubated in a detection buffer (40 mM of HEPES, pH 7.4, 125 mM of KCl, 5 mM of MgCl2, 5% DMSO), and the maximum excitation peak and the maximum emission peak of the fluorescence of the nucleic acid aptamer-fluorophore molecular complex were detected with Synergy Neo2 multifunctional enzyme-labeler. Synergy Neo2 multifunctional enzyme-labeler was used again to detect fluorescence intensity of the nucleic acid aptamer-fluorophore molecular complex under its maximum excitation and emission conditions, the control sample ([…] of fluorophore molecules without nucleic acid aptamer) was also measured under the same conditions, and the ratio of fluorescence intensity was calculated. For example, as for fluorescence of the complex formed by 2.5 μM of N16-1 nucleic acid aptamer and 0.5 μM of I-5-14 fluorophore molecules, the maximum excitation peak is 512 nm and the maximum emission peak is 574 nm. It was detected by the Synergy Neo2 multifunctional enzyme-labeler that the fluorescence intensity of the complex at an excitation condition of 512±10 nm and an emission condition of 574 nm±10 nm was 49,088, while the fluorescence intensity of the control (0.5 μM of I-5-14 fluorophore molecules) under the same detection conditions was 399, so the activation multiple of N16-1 nucleic acid aptamer to I-5-14 fluorophore molecules was 123.
F30-N16-1 RNA aptamer molecules were prepared by using the commonly-used experimental method (I), and were used for detecting basic properties, including fluorescence spectrum and fluorescence activation multiple, of the binding of I-5-14 analogues with N16.

Consider `CN(CCO)c1ccc2c(c1)C(C)(C)c1cc(/C=C3\SC(=S)NC3=S)sc1-2` [I-5-78], for which the “Maximum emission peak (nm)” value is on record as 681 nm, the “Maximum excitation peak (nm)” value turned out to be 582 nm and the “Activation Multiple” value is recorded as 8.

As for `O=C1NC(=S)S/C1=C\c1cc2c3c(c1)CCCN3CCC2` [I-5-47], the “Maximum emission peak (nm)” value came out at 607 nm, the “Maximum excitation peak (nm)” value is listed as 529 nm and the “Activation Multiple” value was found to be 245.

Consider `CN1CCSc2cc(/C=C3\SC(=S)NC3=S)ccc21` [I-5-34], for which the “Maximum emission peak (nm)” value is listed as 659 nm, the “Maximum excitation peak (nm)” value was found to be 547 nm and the “Activation Multiple” value is listed as 11.

With `CCN1C(=O)O/C(=C\c2ccc(N(C)CCO)cc2)C1=O` [I-5-13], the “Maximum emission peak (nm)” value came out at 492 nm, the “Maximum excitation peak (nm)” value is on record as 393 nm and the “Activation Multiple” value amounted to 8.

As for `CN1C(=O)S/C(=C\c2cc3c4c(c2)CCCN4CCC3)C1=S` [I-5-46], the “Maximum emission peak (nm)” value was found to be 633 nm, the “Maximum excitation peak (nm)” value worked out at 542 nm and the “Activation Multiple” value amounted to 7.

For the compound `CN1C(=O)/C(=C/c2cc3c(s2)-c2sc(N(CCO)CCO)cc2C3(C)C)SC1=S` [I-5-84], the “Maximum emission peak (nm)” value was determined as 737 nm, the “Maximum excitation peak (nm)” value is 685 nm and the “Activation Multiple” value worked out at 6.

`CN(CCO)c1ccc(/C=C2\SC(=O)NC2=S)cc1` [I-5-15]: the “Maximum emission peak (nm)” value is reported as 598 nm, the “Maximum excitation peak (nm)” value worked out at 567 nm and the “Activation Multiple” value is listed as 31.

`CN(CCO)c1cc2sc(/C=C3\SC(=O)NC3=S)cc2s1` [I-5-56]: the “Maximum emission peak (nm)” value is on record as 627 nm, the “Maximum excitation peak (nm)” value is reported as 568 nm and the “Activation Multiple” value stood at 12.

In the case of `S=C1NC(=S)/C(=C/c2cc3c4c(c2)CCCN4CCC3)S1` [I-5-48], the “Maximum emission peak (nm)” value is reported as 675 nm, the “Maximum excitation peak (nm)” value was found to be 579 nm and the “Activation Multiple” value turned out to be 6.

`CN(C)c1ccc(/C=C2\OC(=O)N(N)C2=O)cc1` [I-5-19]: the “Maximum emission peak (nm)” value was found to be 499 nm, the “Maximum excitation peak (nm)” value is given as 397 nm and the “Activation Multiple” value amounted to 18.

Take `CN(C)c1ccc(/C=C2\NC(=S)NC2=O)cc1` [I-5-24]: the “Maximum emission peak (nm)” value is 543 nm, the “Maximum excitation peak (nm)” value was determined as 473 nm and the “Activation Multiple” value was 7.

As for `CN(C)c1ccc(/C=C2\SC(=S)NC2=S)cc1` [I-5-22], the “Maximum emission peak (nm)” value amounted to 657 nm, the “Maximum excitation peak (nm)” value came to 613 nm and the “Activation Multiple” value is listed as 126.

Regarding `CN(CCO)c1ccc(/C=C2\SC(=O)NC2=O)cc1` [I-5-17], the “Maximum emission peak (nm)” value was 506 nm, the “Maximum excitation peak (nm)” value was found to be 445 nm and the “Activation Multiple” value amounted to 105.

Turning to `CN1CCOc2cc(/C=C3\SC(=S)N(CCC(=O)O)C3=S)ccc21` [I-5-38], the “Maximum emission peak (nm)” value was 647 nm, the “Maximum excitation peak (nm)” value is 545 nm and the “Activation Multiple” value is listed as 7.

As for `CN(CCO)c1ccc2c(c1)C(C)(C)c1cc(/C=C3\SC(=S)NC3=S)ccc1-2` [I-5-75], the “Maximum emission peak (nm)” value was 791 nm, the “Maximum excitation peak (nm)” value was 741 nm and the “Activation Multiple” value amounted to 7.

Regarding `CN1C(=O)/C(=C/c2ccc(N(C)CCO)cc2)NC1=S` [I-5-18], the “Maximum emission peak (nm)” value came out at 545 nm, the “Maximum excitation peak (nm)” value was determined as 473 nm and the “Activation Multiple” value came to 57.

As to `CC1=CC(C)(C)N(C)c2ccc(/C=C3\SC(=S)NC3=S)cc21` [I-5-43], the “Maximum emission peak (nm)” value was found to be 665 nm, the “Maximum excitation peak (nm)” value came to 572 nm and the “Activation Multiple” value is reported as 17.

With `CC1=CC(C)(C)N(C)c2ccc(/C=C3\NC(=S)NC3=O)cc21` [I-5-45], the “Maximum emission peak (nm)” value is 595 nm, the “Maximum excitation peak (nm)” value worked out at 497 nm and the “Activation Multiple” value is given as 11.

As for `CN(CCO)c1cc2sc(/C=C3\SC(=S)NC3=O)cc2s1` [I-5-57], the “Maximum emission peak (nm)” value is 647 nm, the “Maximum excitation peak (nm)” value came out at 579 nm and the “Activation Multiple” value worked out at 1279.

`CN(C)c1cc2sc(/C=C3\SC(=O)NC3=O)cc2s1` [I-5-53]: the “Maximum emission peak (nm)” value worked out at 593 nm, the “Maximum excitation peak (nm)” value is reported as 518 nm and the “Activation Multiple” value worked out at 1281.

Take `CC1=CC(C)(C)N(C)c2ccc(/C=C3\SC(=S)NC3=O)cc21` [I-5-41]: the “Maximum emission peak (nm)” value turned out to be 612 nm, the “Maximum excitation peak (nm)” value is on record as 517 nm and the “Activation Multiple” value worked out at 85.

Consider `CN1C(=O)/C(=C/c2ccc(-c3ccc(N(C)CCO)s3)cc2)NC1=S` [I-5-63], for which the “Maximum emission peak (nm)” value is 673 nm, the “Maximum excitation peak (nm)” value was 521 nm and the “Activation Multiple” value is given as 6.

Turning to `CN(CCO)c1ccc(/C=C2\SC(=S)N(N)C2=S)cc1` [I-5-16], the “Maximum emission peak (nm)” value was found to be 648 nm, the “Maximum excitation peak (nm)” value came to 615 nm and the “Activation Multiple” value turned out to be 11.

In the case of `CN(C)c1cc2sc(/C=C3\SC(=S)NC3=O)cc2s1` [I-5-51], the “Maximum emission peak (nm)” value worked out at 654 nm, the “Maximum excitation peak (nm)” value stood at 582 nm and the “Activation Multiple” value turned out to be 1125.

Regarding `CN(CCOC(=O)CCOCCO)c1ccc(/C=C2\SC(=S)NC2=O)c(Br)c1` [I-5-26], the “Maximum emission peak (nm)” value was determined as 567 nm, the “Maximum excitation peak (nm)” value was 497 nm and the “Activation Multiple” value worked out at 21.

Regarding `CN(CCO)c1ccc2c(c1)C(C)(C)c1cc(/C=C3\NC(=S)NC3=O)sc1-2` [I-5-77], the “Maximum emission peak (nm)” value was 783 nm, the “Maximum excitation peak (nm)” value is 736 nm and the “Activation Multiple” value was 5.

With `CN1CCOc2cc(/C=C3\SC(=O)NC3=S)ccc21` [I-5-36], the “Maximum emission peak (nm)” value is 625 nm, the “Maximum excitation peak (nm)” value stood at 517 nm and the “Activation Multiple” value turned out to be 9.

For the compound `CN1C(=O)/C(=C/c2cc3c(s2)-c2ccc(N(CCO)CCO)cc2C3(C)C)SC1=S` [I-5-80], the “Maximum emission peak (nm)” value turned out to be 743 nm, the “Maximum excitation peak (nm)” value is reported as 686 nm and the “Activation Multiple” value is on record as 7.

As for `CN(CCO)c1ccc2c(c1)C(C)(C)c1cc(/C=C3\SC(=S)NC3=O)sc1-2` [I-5-79], the “Maximum emission peak (nm)” value was 733 nm, the “Maximum excitation peak (nm)” value came out at 682 nm and the “Activation Multiple” value was 11.

Turning to `CN1CCSc2cc(/C=C3\SC(=O)NC3=O)ccc21` [I-5-33], the “Maximum emission peak (nm)” value turned out to be 553 nm, the “Maximum excitation peak (nm)” value amounted to 442 nm and the “Activation Multiple” value is 154.

Take `O=C1NC(=O)/C(=C/c2cc3c4c(c2)CCCN4CCC3)S1` [I-5-49]: the “Maximum emission peak (nm)” value is given as 539 nm, the “Maximum excitation peak (nm)” value is listed as 469 nm and the “Activation Multiple” value came to 1025.

With `CN(CCO)c1cc2c(s1)-c1sc(/C=C3\NC(=S)N(N)C3=O)cc1C2(C)C` [I-5-81], the “Maximum emission peak (nm)” value was 713 nm, the “Maximum excitation peak (nm)” value turned out to be 635 nm and the “Activation Multiple” value was determined as 7.
